Experimental findings from ChEMBL document CHEMBL3526034 (Drug Metab Dispos, 2013) are described below.

One series addresses UGT1A1 (Homo sapiens, UniProt P22309). In words: Inhibition of human recombinant UGT1A1 expressed in supersomes assessed as scopoletin glucuronidation at 100 uM by fluorescence analysis. It counts as ADME. The following applies: probe scopoletin.
For series [1], the target named is T1, Cytochrome P450 2C9 (Homo sapiens, UniProt P11712). As to the kind of experiment: Metabolism-dependent inhibition of CYP2C9 in human liver microsomes using diclofenac as substrate preincubated for 20 mins with NADPH prior to initiation of reaction with probe substrate by HPLC analysis. It is filed as ADME. Background: Liver microsomes are a subcellular fraction often used to study metabolism.
T1 sequence (P11712 whole entry): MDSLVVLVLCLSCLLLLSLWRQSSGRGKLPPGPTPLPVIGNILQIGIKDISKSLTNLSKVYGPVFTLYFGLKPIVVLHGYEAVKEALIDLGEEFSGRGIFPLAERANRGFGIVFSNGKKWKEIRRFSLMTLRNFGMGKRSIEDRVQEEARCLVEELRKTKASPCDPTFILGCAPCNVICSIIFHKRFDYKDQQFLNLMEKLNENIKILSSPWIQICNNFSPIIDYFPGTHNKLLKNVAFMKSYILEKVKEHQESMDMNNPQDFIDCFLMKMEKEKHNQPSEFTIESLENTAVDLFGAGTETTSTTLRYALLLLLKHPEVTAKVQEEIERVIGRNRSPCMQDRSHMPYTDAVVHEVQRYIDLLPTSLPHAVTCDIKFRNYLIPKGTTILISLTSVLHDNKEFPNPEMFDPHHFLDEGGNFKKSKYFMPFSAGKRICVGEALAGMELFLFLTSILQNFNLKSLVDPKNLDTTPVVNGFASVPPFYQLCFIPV

Series [2] concerns the target T1, Cytochrome P450 2C9. In words: Inhibition of CYP2C9 in human liver microsomes using diclofenac as substrate preincubated for 20 mins with substrate prior to initiation of reaction with NADPH by HPLC analysis. It is filed as ADME.
Series [3] has as its target T2, ATP-dependent translocase ABCB1 (Homo sapiens, UniProt P08183). As to the kind of experiment: Inhibition of MDR1 (unknown origin) expressed in MDCK2 cells assessed as basolateral to apical transport of [3H]digoxin at 100 uM after 90 mins by liquid scintillation counting analysis. To be noted: mdck-ii, 1.5 h. It is filed as ADME, cell-based.
For another series, the system named is Hepatocyte. In words: Induction of CYP2B6 mRNA expression in human hepatocytes at 1 to 40 uM after 48 hrs by real time PCR analysis. It is filed as ADME, cell-based. Background: Real-time PCR tracks product formation cycle by cycle.
In a further series the target is T3, Cytochrome P450 1A2 (Homo sapiens, UniProt P05177).
T3 sequence (P05177 whole entry): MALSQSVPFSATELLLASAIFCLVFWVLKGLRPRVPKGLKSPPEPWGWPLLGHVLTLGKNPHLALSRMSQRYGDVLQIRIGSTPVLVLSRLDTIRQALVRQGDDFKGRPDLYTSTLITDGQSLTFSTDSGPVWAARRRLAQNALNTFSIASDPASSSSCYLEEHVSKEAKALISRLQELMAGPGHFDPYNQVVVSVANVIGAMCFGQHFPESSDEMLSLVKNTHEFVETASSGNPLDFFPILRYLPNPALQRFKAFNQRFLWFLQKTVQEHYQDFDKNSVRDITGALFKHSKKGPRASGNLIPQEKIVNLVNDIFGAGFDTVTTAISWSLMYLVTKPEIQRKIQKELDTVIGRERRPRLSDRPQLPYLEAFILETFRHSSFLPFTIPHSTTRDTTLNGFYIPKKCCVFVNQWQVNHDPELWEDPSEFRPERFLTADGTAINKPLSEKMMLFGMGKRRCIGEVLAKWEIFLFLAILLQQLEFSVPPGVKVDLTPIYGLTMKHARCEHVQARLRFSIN
In words: Drug metabolism in supersomes expressing human recombinant CYP1A2 assessed as NADPH-fortified enzyme-mediated metabolite formation at 5 uM after 120 mins by radio HPLC analysis. It is filed as ADME. The following applies: 2 h.

Series [4] concerns the target Solute carrier family 22 member 1 (Homo sapiens, UniProt O15245). In words: Inhibition of human OCT1 expressed in HEK293 cells using [14C]metformin as substrate at 10 uM after 10 mins by liquid scintillation counting analysis. It counts as ADME, cell-based. The following applies: hek293, 10 min.
Series [5] has as its target T4, UDP-glucuronosyltransferase 1A1 (Homo sapiens, UniProt P22309).
T4 sequence (P22309 whole entry): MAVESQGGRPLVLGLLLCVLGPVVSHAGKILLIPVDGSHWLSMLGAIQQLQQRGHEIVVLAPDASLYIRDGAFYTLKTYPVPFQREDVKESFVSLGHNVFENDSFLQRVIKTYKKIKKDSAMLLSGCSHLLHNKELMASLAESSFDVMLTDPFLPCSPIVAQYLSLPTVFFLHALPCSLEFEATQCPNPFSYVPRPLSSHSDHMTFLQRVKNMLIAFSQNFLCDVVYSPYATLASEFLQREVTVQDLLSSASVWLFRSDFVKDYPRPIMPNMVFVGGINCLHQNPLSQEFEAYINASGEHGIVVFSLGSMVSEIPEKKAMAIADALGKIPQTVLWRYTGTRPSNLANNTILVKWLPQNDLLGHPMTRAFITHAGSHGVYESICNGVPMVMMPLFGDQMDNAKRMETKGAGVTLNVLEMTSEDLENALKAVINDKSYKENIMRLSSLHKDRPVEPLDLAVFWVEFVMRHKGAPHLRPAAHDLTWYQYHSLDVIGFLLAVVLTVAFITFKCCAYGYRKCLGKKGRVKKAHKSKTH
As to the kind of experiment: Drug metabolism assessed as human recombinant UGT1A1-mediated DTG glucuronide M2 ((2S,3S,4S,5R,6S)-6-((4R,12aS)-9-(2,4-difluorobenzylcarbamoyl)-4-methyl-6,8-dioxo-3,4,6,8,12,12a-hexahydro-2H-[1,3]oxazino[3,2-d]pyrido[1,2-a]pyrazin-7-yloxy)-3,4,5-trihydroxytetrahydro-2H-pyran-2-carboxylic acid) formation after 120 mins measured per mg of protein by radio-HPLC analysis. It is filed as ADME. The following applies: recombinant enzyme.

The subject of another series is Liver microsome. In words: Drug metabolism in NADPH-fortified human liver microsomes assessed as metabolite M3 ((4R,12aS)-N-((3,5-difluorophenyl)(hydroxy)methyl)-7-hydroxy-4-methyl-6,8-dioxo-3,4,6,8,12,12a-hexahydro-2H-[1,3]oxazino[3,2-d]pyrido[1,2-a]pyrazine-9-carboxamide) formation at 5 uM after 120 mins by radio-HPLC analysis. It counts as ADME.
Series [6] addresses T5, Cytochrome P450 2B6 (Homo sapiens, UniProt P20813).
T5 sequence (P20813 whole entry): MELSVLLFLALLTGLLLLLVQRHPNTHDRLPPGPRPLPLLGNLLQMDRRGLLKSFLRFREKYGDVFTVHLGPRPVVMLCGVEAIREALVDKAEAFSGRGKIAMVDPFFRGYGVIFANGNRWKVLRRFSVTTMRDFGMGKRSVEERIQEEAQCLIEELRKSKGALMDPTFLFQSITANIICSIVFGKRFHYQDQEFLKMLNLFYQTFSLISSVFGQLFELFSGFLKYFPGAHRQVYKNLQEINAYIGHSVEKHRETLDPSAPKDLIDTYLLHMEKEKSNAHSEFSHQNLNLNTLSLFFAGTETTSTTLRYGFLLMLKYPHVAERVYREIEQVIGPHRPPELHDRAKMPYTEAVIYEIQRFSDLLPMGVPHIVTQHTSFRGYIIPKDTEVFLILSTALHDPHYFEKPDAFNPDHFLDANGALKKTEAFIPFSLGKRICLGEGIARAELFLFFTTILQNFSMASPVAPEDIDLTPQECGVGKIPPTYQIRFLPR
As to the kind of experiment: Metabolism-dependent inhibition of CYP2B6 in human liver microsomes using bupropion as substrate preincubated for 20 mins with NADPH prior to initiation of reaction with probe substrate by HPLC analysis. It is filed as ADME.

Series [7] addresses T5, Cytochrome P450 2B6. In words: Drug metabolism in supersomes expressing human recombinant CYP2B6 assessed as NADPH-fortified enzyme-mediated metabolite formation at 5 uM after 120 mins by radio HPLC analysis. It counts as ADME. The following applies: 2 h.
The target of series [8] is T2, ATP-dependent translocase ABCB1. In words: Inhibition of human MDR1. It is filed as ADME.
The target in another series is MDR1 (P-gp, ABCB1) (Homo sapiens, UniProt P08183). As to the kind of experiment: Activity at human MDR1 expressed in MDCK2 cells assessed as basolateral to apical mass balance at 3 uM by liquid scintillation counting analysis in presence of 3 uM P-gp and BCRP inhibitor GF120918. The following applies: with GF120918 (P-gp and BCRP inhibitor), read-out: Activity. It is filed as ADME, cell-based, MDCK-II.
MDR1 (P-gp, ABCB1), sequence (P08183 whole entry): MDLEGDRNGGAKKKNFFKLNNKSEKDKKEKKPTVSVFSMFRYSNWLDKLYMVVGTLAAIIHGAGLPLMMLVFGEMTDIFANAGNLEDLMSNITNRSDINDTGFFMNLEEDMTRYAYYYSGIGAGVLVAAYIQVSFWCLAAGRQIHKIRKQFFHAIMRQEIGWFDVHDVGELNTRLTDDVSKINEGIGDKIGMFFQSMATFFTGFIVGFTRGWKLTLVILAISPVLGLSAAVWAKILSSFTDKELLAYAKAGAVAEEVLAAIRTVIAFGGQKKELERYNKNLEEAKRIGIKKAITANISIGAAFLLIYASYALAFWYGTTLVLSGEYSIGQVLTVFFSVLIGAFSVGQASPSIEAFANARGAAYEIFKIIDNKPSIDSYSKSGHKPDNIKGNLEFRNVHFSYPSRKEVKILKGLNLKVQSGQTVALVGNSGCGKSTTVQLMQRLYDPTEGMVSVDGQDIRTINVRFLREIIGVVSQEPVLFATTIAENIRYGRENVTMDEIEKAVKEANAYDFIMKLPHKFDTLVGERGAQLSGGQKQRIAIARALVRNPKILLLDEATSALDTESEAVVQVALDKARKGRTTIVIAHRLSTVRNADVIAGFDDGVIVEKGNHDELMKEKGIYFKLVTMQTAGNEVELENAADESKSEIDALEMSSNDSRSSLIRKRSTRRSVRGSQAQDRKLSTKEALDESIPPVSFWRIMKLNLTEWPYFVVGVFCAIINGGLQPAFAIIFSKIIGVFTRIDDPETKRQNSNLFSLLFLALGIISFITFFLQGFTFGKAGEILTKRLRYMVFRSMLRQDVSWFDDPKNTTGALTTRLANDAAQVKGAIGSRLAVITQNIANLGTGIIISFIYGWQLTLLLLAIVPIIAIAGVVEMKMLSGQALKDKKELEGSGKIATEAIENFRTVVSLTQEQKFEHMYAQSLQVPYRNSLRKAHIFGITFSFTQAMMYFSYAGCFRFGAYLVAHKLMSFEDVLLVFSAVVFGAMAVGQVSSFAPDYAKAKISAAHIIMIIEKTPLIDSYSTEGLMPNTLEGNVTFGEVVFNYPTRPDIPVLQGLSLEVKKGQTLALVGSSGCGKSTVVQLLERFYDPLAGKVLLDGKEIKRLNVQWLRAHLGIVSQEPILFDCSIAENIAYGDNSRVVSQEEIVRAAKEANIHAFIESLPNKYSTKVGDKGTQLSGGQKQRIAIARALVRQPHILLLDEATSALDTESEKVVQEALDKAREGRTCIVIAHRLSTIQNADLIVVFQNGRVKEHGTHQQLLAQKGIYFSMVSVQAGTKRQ

Series [9] is described as follows: Drug excretion in human feces at 20 mg, po. It counts as ADME, tissue-based. To be noted: faeces, read-out: Drug excretion.

T2 sequence (P08183 whole entry): as above
Solute carrier family 22 member 1, sequence (O15245 whole entry): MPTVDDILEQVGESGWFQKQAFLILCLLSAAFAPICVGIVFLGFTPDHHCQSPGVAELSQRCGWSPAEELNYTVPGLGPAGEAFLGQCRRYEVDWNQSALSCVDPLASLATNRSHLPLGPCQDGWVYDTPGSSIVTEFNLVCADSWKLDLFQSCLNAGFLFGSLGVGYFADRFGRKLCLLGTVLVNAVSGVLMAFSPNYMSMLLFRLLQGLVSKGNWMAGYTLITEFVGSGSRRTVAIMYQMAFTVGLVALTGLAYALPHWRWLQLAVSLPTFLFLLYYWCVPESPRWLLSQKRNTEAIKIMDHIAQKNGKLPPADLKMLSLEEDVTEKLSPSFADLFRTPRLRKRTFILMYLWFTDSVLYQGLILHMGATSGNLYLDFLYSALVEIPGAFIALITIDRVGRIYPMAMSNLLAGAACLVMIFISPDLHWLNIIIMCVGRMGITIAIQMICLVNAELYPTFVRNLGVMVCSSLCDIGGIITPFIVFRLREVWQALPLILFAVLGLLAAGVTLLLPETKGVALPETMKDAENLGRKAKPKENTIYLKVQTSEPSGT

Take `C[C@@H]1CCO[C@H]2Cn3cc(C(=O)NCc4ccc(F)cc4F)c(=O)c(O)c3C(=O)N12` [DOLUTEGRAVIR]: the inhibition at 100 µM on UGT1A1 came out at 33%. In addition, the half-inhibitory concentration (IC50) is greater than 100 µM at Cytochrome P450 2C9 [1], greater than 100 µM on Cytochrome P450 2C9 [2], greater than 100 µM against Cytochrome P450 2B6 [6] and greater than 90 µM in series [8]. In addition, the “inhibition (INH)” value turned out to be 29% in series [3] and 22% in series [4]. The Activity result in the series with Hepatocyte was “Toxic”. Moreover, the Drug metabolism entry was “metabolite_not_detected” on Cytochrome P450 1A2, “metabolite_detected” in the series on Liver microsome and “metabolite_not_detected” on Cytochrome P450 2B6 [7]. Also, the Vmax in series [5] is reported as 67 pmol/min. The recovery at 3 µM on MDR1 (P-gp, ABCB1) worked out at 75%. Besides, the dose excreted in series [9] came out at 3.1%.

In general, inhibition refers to the share of the control response that was lost under treatment. Broadly, the IC50 is the concentration that inhibits the measured activity by half. As a reminder, the Vmax is the top rate of the reaction or transport when substrate is in excess.
